Legend:
neutrophil = details: cited from earlier work
osteoclasts = assay: Osteoclast function (pit depth on dentine slices); format: cell-based, mouse; details: PI3K inhibitors 100 nM, 72 hr
Description: To analyze the effect of the present PI3Kδ inhibitor compounds on osteoclasts, mouse bone marrow cells are isolated and differentiated to osteoclasts by treating the cells with Macrophage Colony Stimulating Factor^−1 (mCSF^−1) and Osteoprotegerin Ligand (OPGL) in serum-containing medium (αMEM with 10% heat-inactivated FBS; Sigma) for 3 days. On day four, when the osteoclasts had developed, the medium is removed and cells are harvested. The osteoclasts are plated on dentine slices at 10^5 cells/well in growth medium, i.e., αMEM containing 1% serum and 2% BSA with […] OPGL and 10 ng/mL mCSF^−1. After 3 hr, the medium is changed to 1% serum and 1% BSA, with or without osteopontin (25 μg/mL) and the PI3K inhibitors (100 nM). The medium is changed every 24 hours with fresh osteopontin and the inhibitors. At 72 hr, the medium is removed, and the dentine surfaces are washed with water to remove cell debris and stained with acid hematoxylin. Excess stain is washed and the pit depths are quantitated using confocal microscopy.

Class I PI 3-kinases = details: read-out: IC50 values against each of these PI 3-kinases; cited from earlier work

In the case of `COC[C@H]1OC(=O)c2coc3c2[C@@]1(C)C1=C(C3=O)[C@@H]2CCC(=O)[C@@]2(C)C[C@H]1OC(C)=O` [wortmannin], the neutrophil migration (neutrophil) is given as “block”, the superoxide release (neutrophil) is given as “block” and the “inhibition of osteoclast activity” value (osteoclasts) is given as “inhibited osteoclast activity”.

For `O=c1cc(N2CCOCC2)oc2c(-c3ccccc3)cccc12` [LY294002], the neutrophil migration (neutrophil) is given as “block”, the superoxide release (neutrophil) is given as “block” and the “inhibition of osteoclast activity” value (osteoclasts) is given as “inhibited osteoclast activity”. The IC50 (Class I PI 3-kinases) was roughly 1 µM.

— patent US8980901B2, “5-fluoro-3-phenyl-2[1-(9H-purin-6-ylamino)propyl]-3H-quinazolin-4-one and 6-fluoro-3-phenyl-2-[1-(9H-purin-6-ylamino)ethyl]-3H-quinazolin-4-one as inhibitors of human phosphatidylinositol 3-kinase delta” (Icos Corporation, priority 2004, dated 2015)
